Columns and labels:
[1] = biological target: T1, ALK2 R206H (GST-tagged mutant ALK2) (Homo sapiens, UniProt Q04771, R206H); assay: ALK binding assay (LANTHASCREEN TR-FRET competitive binding, displacement of Kinase Tracer 178); details: ALK2 R206H, LANTHASCREEN TR-FRET competitive binding; read-out: Binding Assay (IC50)
T1 construct: purchased Carna Bioscience or ThermoFisher 09-148 or PV6232
T1 sequence (Q04771 21-509 R206H): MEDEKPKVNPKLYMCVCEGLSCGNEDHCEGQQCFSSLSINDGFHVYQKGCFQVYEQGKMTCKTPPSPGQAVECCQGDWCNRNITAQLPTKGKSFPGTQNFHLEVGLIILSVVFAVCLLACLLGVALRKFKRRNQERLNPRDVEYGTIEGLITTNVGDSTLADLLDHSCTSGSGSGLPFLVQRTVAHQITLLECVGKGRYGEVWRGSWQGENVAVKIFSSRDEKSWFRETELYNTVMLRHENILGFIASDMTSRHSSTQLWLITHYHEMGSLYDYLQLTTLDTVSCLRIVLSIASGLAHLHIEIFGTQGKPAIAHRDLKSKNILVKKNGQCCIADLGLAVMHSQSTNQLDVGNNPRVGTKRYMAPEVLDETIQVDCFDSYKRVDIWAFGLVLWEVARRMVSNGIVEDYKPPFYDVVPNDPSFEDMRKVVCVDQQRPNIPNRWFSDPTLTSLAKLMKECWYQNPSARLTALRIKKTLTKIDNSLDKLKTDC
Method: Binding assays were conducted using the LANTHASCREEN® technology (ThermoFisher Scientific). LANTHASCREEN® is a competitive binding, displacement assay where the assumed steady state occupancy of the binding site is measured using a time-resolved, fluorescence energy transfer (TR-FRET) readout between a fluorescent tracer and Europium (Eu)-tagged antibody specific for the kinase or expression tag (e.g. GST) of interest. Displacement of the tracer by a compound of the disclosure reduces, and is directly proportional to, the TR-FRET between the tracer and the antibody. Tracer was used at a concentration equal to or near to its Kd for the kinase.
In all cases, the kinase (2-5 nM) was mixed with Eu-tagged antibody (10 nM) mix and tracer (50 nM) were incubated with test compound titrations prepared in 100% DMSO (1% DMSO final) for 30 minutes at room temperature. All reagents and compounds were dissolved in Kinase Buffer A (ThermoFisher) to achieve the final concentration. […] This readout was normalized to 0% and 100% inhibited control wells, plotted against inhibitor concentration, and fitted to a 4-parameter log dose response curve.
(§1) Blank values in the table indicate that the particular compound was not tested in this assay.

[2] = biological target: T2, human ALK2 R206H (Homo sapiens, UniProt Q04771, R206H); assay: Cell-based ALK2-R206H cell activity assay (Smad1-Ser463/Ser465 phosphorylation by AlphaLISA in HEK293-ALK2-R206H cells); details: read-out: Cell Line (Cell Assay IC50)
T2 construct: expressed in transfected cells; host or cells: HEK293 (ATCC CRL1573), lentivirus transduction, blasticidin selection
T2 sequence (Q04771 21-509 R206H): T1 sequence (Q04771 21-509 R206H)
Method: A HEK293 (ATCC, Cat^# CRL1573) based stable cell line expressing human ALK2 R206H cDNA (synthesized by GeneScript, Piscataway, N.J.) and a FLAG tag at the C-terminus was generated by lentivirus transduction and subsequent blasticidin (Life Technologies, Cat^#-A1113902) selection at 10 μg/ml for >2 wks. This cell line was named HEK293-ALK2-R206H.
Test compounds were first diluted to 4 mM or 0.4 mM and then serially diluted 3-fold into 10 different concentrations using DMSO. […] Two μl of the diluted compounds were then dispensed into the HEK293-ALK2-R206H cell-containing wells of the microplates in duplicates. In this way, each compound was tested in 10 doses (3-fold serial dilution with the top concentration being 10 μM or 1 μM). Liquid handling was achieved using a Bravo Automated Liquid Handling Platform (Agilent Technologies). DMSO without compound was used as a negative control. The positive control was 1 μM LDN193189, a known bone morphogenetic protein (BMP inhibitor).
The 10-point dose response curve was used to calculate the IC50 values.
as §1

| Structure (SMILES) | IC50 [1] | IC50 [2] |
| --- | --- | --- |
| O=C(C1CC1)N1CCN(c2ccnn3cc(-c4cnn(C5CNC5)c4)cc23)CC1 [Compound 100] | < 10 nM | 100 to 500 nM |
| O=C(C1CC1)N1CCN(c2ccnn3cc(-c4ccc(C5CNC5)cc4)cc23)CC1 [Compound 102] | < 10 nM | 100 to 500 nM |
| O=C(C1CC1)N1CCN(c2ccnn3cc(-c4cnn(C5CCCC5)c4)cc23)CC1 [Compound 103] | 10 to 50 nM | > 500 nM |
| O=C(C1CC1)N1CCN(c2ccnn3cc(-c4cnn(C5CCNC5)c4)cc23)CC1 (stereo not shown) [Compound 104] | < 10 nM | 100 to 500 nM |
| O=C(C1CC1)N1CCN(c2ccnn3cc(-c4cc5c(s4)CNCC5)cc23)CC1 [Compound 107] | < 10 nM | < 100 nM |
| O=C(C1CC1)N1CCN(c2ccnn3cc(-c4nc5c(s4)CNCC5)cc23)CC1 [Compound 109] | < 10 nM | < 100 nM |
| CC(C)(C#N)c1ccc(-c2cc3c(N4CCN(C(=O)C5CC5)CC4)ccnn3c2)cc1 [Compound 110] | 10 to 50 nM | 100 to 500 nM |
| O=C(C1CC1)N1CCN(c2ccnn3cc(-c4ccc(C5=NCCN5)cc4)cc23)CC1 [Compound 111, cyclopropyl(4-(6-(4-(4,5-dihydro-1H-imidazol-2-yl)phenyl)pyrrolo[1,2-b]pyridazin-4-yl)piperazin-1-yl)methanone] | < 10 nM | 100 to 500 nM |
| O=C(C1CC1)N1CCN(c2ccnn3cc(-c4ccc(C5CCNC5)cc4)cc23)CC1 (stereo not shown) [Compound 112] | < 10 nM | 100 to 500 nM |
| O=C(C1CC1)N1CCN(c2ccnn3cc(-c4ccc(C5CCCN5)cc4)cc23)CC1 (stereo not shown) [Compound 113] | < 10 nM | < 100 nM |
| O=C(C1CC1)N1CCN(c2ccnn3cc(-c4ccc(OC5CNC5)cc4)cc23)CC1 [Compound 115] | < 10 nM | 100 to 500 nM |
| O=C(C1CC1)N1CCN(c2ccnn3cc(-c4cnn(C5CCCNC5)c4)cc23)CC1 (stereo not shown) [Compound 116] | < 10 nM | < 100 nM |
| O=C(C1CC1)N1CCN(c2ccnn3cc(-c4cnn(C5CCNCC5)c4)cc23)CC1 [Compound 117] | < 10 nM | 100 to 500 nM |
| CCN1CC(n2cc(-c3cc4c(N5CCN(C(=O)C6CC6)CC5)ccnn4c3)cn2)C1 [Compound 118] | < 10 nM | 100 to 500 nM |
| O=C(C1CC1)N1CCN(c2ccnn3cc(-c4ccc5c(c4)COC54CNC4)cc23)CC1 [Compound 120] | < 10 nM | 100 to 500 nM |
| O=C(C1CC1)N1CCN(c2ccnn3cc(-c4ccc(C5CCNCC5)cc4)cc23)CC1 [Compound 122] | < 10 nM | < 100 nM |
| O=C(C1CC1)N1CCN(c2ccnn3cc(-c4ccc(C5CCCNC5)cc4)cc23)CC1 (stereo not shown) [Compound 123] | < 10 nM | 100 to 500 nM |
| CCN1CC(c2ccc(-c3cc4c(N5CCN(C(=O)C6CC6)CC5)ccnn4c3)cc2)C1 [Compound 124] | < 10 nM | < 100 nM |
| O=C(C1CC1)N1CCN(c2ccnn3cc(-c4ccc(C5CCCCN5)cc4)cc23)CC1 (stereo not shown) [Compound 125] | < 10 nM | < 100 nM |

| Structure (SMILES) | IC50 [1] | IC50 [2] |
| --- | --- | --- |
| O=C(C1CC1)N1CCN(c2ccnn3cc(-c4ccc(N5CCNCC5)cc4)cc23)CC1 [Compound 127, cyclopropyl(4-(6-(4-(piperazin-1-yl)phenyl)pyrrolo[1,2-b]pyridazin-4-yl)piperazin-1-yl)methanone] | < 10 nM | < 100 nM |
| O=C(C1CC1)N1CCN(c2ccnn3cc(-c4cccc(C5CNCCO5)c4)cc23)CC1 (stereo not shown) [Compound 128] | 10 to 50 nM | 100 to 500 nM |
| O=C(C1CC1)N1CCN(c2ccnn3cc(-c4ccc(C5CNCCO5)cc4)cc23)CC1 (stereo not shown) [Compound 129] | < 10 nM | < 100 nM |
| O=C(C1CC1)N1CCN(c2ccnn3cc(-c4ccc([C@H]5CNCCO5)cc4)cc23)CC1 [Compound 130, (S)-cyclopropyl(4-(6-(4-(morpholin-2-yl)phenyl)pyrrolo[1,2-b]pyridazin-4-yl)piperazin-1-yl)methanone] | < 10 nM | 100 to 500 nM |
| O=C(C1CC1)N1CCN(c2ccnn3cc(-c4ccc([C@@H]5CNCCO5)cc4)cc23)CC1 [Compound 131, (R)-cyclopropyl(4-(6-(4-(morpholin-2-yl)phenyl)pyrrolo[1,2-b]pyridazin-4-yl)piperazin-1-yl)methanone] | < 10 nM | 100 to 500 nM |
| O=C(C1CC1)N1CCN(c2ccnn3cc(-c4ccc(OCC5CCN5)cc4)cc23)CC1 (stereo not shown) [Compound 132] | < 10 nM | < 100 nM |
| O=C(C1CC1)N1CCN(c2ccnn3cc(-c4ccc(OC5CCNC5)cc4)cc23)CC1 (stereo not shown) [Compound 133] | < 10 nM | < 100 nM |
| O=C(C1CC1)N1CCN(c2ccnn3cc(-c4ccc(OCC5CNC5)cc4)cc23)CC1 [Compound 134] | < 10 nM | 100 to 500 nM |
| O=C(C1CC1)N1CCN(c2ccnn3cc(-c4ccc(N5CCNCC5)nc4)cc23)CC1 [Compound 135] | 10 to 50 nM | 100 to 500 nM |
| O=C(C1CC1)N1CCN(c2ccnn3cc(-c4ccc(C5CNCC5F)cc4)cc23)CC1 (stereo not shown) [Compound 137] | < 10 nM | < 100 nM |
| CCNC(=O)N1CCN(c2ccnn3cc(-c4ccc(N5CCNCC5)cc4)cc23)CC1 [Compound 140] | < 10 nM | < 100 nM |
| CCNC(=O)N1CCN(c2ccnn3cc(-c4ccc([C@@H]5CNCCO5)cc4)cc23)CC1 [Compound 142] | < 10 nM | 100 to 500 nM |
| CCOC(=O)N1CCN(c2ccnn3cc(-c4ccc(N5CCNCC5)cc4)cc23)CC1 [Compound 143] | < 10 nM | < 100 nM |
| CCOC(=O)N1CCN(c2ccnn3cc(-c4ccc(C5CNCCO5)cc4)cc23)CC1 (stereo not shown) [Compound 144] | < 10 nM | 100 to 500 nM |
| CCOC(=O)N1CCN(c2ccnn3cc(-c4ccc(C5CNCC5F)cc4)cc23)CC1 (stereo not shown) [Compound 145] | < 10 nM | < 100 nM |
| O=C(C1CC1)N1CCN(c2ccnn3cc(-c4ccc(N5CC6(CNC6)C5)cc4)cc23)CC1 [Compound 146] | < 10 nM | 100 to 500 nM |
| CCN1CCC(c2ccc(-c3cc4c(N5CCN(C(=O)C6CC6)CC5)ccnn4c3)cc2)C1 (stereo not shown) [Compound 147] | < 10 nM | < 100 nM |
| CCN1CC[C@@H](c2ccc(-c3cc4c(N5CCN(C(=O)C6CC6)CC5)ccnn4c3)cc2)C1 [Compound 148] | < 10 nM | < 100 nM |
| CCN1CC[C@H](c2ccc(-c3cc4c(N5CCN(C(=O)C6CC6)CC5)ccnn4c3)cc2)C1 [Compound 149] | < 10 nM | < 100 nM |
